The test system of series [1] is NHDF. The series can be described thus: Cytotoxicity against human HDF cells assessed as reduction in cell viability at 10 uM incubated for 24 hrs by MTT assay. In kind it is toxicity, cell-based.
The subject of series [2] is NHDF. The series can be described thus: Antiapoptotic activity in UV-B irradiation induced human HDF cells assessed as upregulation of catalase expression level at 50 uM incubated for 24 hrs by western blot analysis. The series is classed as functional, cell-based.
Series [3] deals with NHDF. As to the kind of experiment: Cytoprotective activity against human HDF cells assessed as increase in cell viability at 10 uM incubated for 24 hrs by MTT assay. The series is classed as functional.
Series [4] deals with NHDF. As to the kind of experiment: Antioxidant activity in UV-B irradiation induced human HDF cells assessed as decrease in ROS level at 10 to 25 uM incubated for 6 hrs by fluorescence microscopy. To be noted: dose 10-25 µM, DDE = dose-dependent effect. The series is classed as functional, cell-based.
Series [5] relates to NHDF. The series can be described thus: Antiapoptotic activity in UV-B irradiation induced human HDF cells assessed as upregulation of catalase expression level at 10 to 25 uM incubated for 24 hrs by western blot analysis. The series is classed as functional, cell-based. To be noted: dose 10-25 µM. For orientation: Immunoblotting shows a protein as a band on a membrane.
Series [6] relates to NHDF. The series can be described thus: Antiapoptotic activity in UV-B irradiation induced human HDF cells assessed as downregulation of MMP1 expression level at 10 to 25 uM incubated for 24 hrs by western blot analysis. In kind it is functional, cell-based. The settings on record: dose 10-25 µM.
The test system of series [7] is NHDF. The series can be described thus: Antiapoptotic activity in UV-B irradiation induced human HDF cells assessed as decrease in mitochondrial membrane potential loss at 10 to 25 uM incubated for 24 hrs by JC-9 staining fluorescence microscopy. The series is classed as functional, cell-based. To be noted: dose 10-25 µM, DDE = dose-dependent effect.
Series [8] concerns NHDF. The series can be described thus: Cytoprotective activity against UV-B irradiation induced human HDF cells assessed as increase in cell viability at 10 uM incubated for 24 hrs by MTT assay. In kind it is functional. (In general: Formazan colour is commonly taken as a measure of viable cells.)
The subject of series [9] is NHDF. As to the kind of experiment: Cytoprotective activity against UV-B irradiation induced human HDF cells assessed as increase in cell viability at 25 uM incubated for 24 hrs by MTT assay. In kind it is functional.
Series [10] relates to NHDF. The series can be described thus: Antiapoptotic activity in UV-B irradiation induced human HDF cells assessed as upregulation of procollagen-1 expression level at 10 to 25 uM incubated for 24 hrs by western blot analysis. In kind it is functional, cell-based. The settings on record: dose 10-25 µM.
In series [11] the test system is NHDF. The series can be described thus: Antioxidant activity in UV-B irradiation induced human HDF cells assessed as decrease in ROS level at 25 uM incubated for 6 hrs by fluorescence microscopy. The series is classed as functional, cell-based.

The results in this text go back to ChEMBL document CHEMBL5214947, “Photoprotective effect of 18β-glycyrrhetinic acid derivatives against ultra violet (UV)-B-Induced skin aging” (Bioorg Med Chem Lett, 2022).

SMILES strings stand for the structures. Activity calls are given as the source filed them. The calls are words filed in the database; no cut-off is given here.

For `CC1(C)C(=O)CC[C@]2(C)[C@H]3C(=O)C=C4[C@@H]5C[C@@](C)(C(=O)O)CC[C@]5(C)CC[C@@]4(C)[C@]3(C)CC[C@@H]12`, in series [1], the Activity was determined as 5.2%.
With `COc1ccc(/C=C2\C[C@]3(C)[C@H]4C(=O)C=C5[C@@H]6C[C@@](C)(C(=O)O)CC[C@]6(C)CC[C@@]5(C)[C@]4(C)CC[C@H]3C(C)(C)[C@H]2O)c(Br)c1O`, the Activity in [1] stood at 20.2%.
On to `CC1(C)[C@@H](O[C@H]2O[C@H](C(=O)O)[C@@H](O)[C@H](O)[C@H]2O[C@@H]2O[C@H](C(=O)O)[C@@H](O)[C@H](O)[C@H]2O)CC[C@]2(C)[C@H]3C(=O)C=C4[C@@H]5C[C@@](C)(C(=O)O)CC[C@]5(C)CC[C@@]4(C)[C@]3(C)CC[C@@H]12`, for which, in [2], the result was Active.
For the compound `CC1(C)[C@@H](O)/C(=C/c2ccc(Br)cc2)C[C@]2(C)[C@H]3C(=O)C=C4[C@@H]5C[C@@](C)(C(=O)O)CC[C@]5(C)CC[C@@]4(C)[C@]3(C)CC[C@@H]12`, the Activity in series [3] is 103.5%.
As for `CC1(C)C(=O)/C(=C/c2ccncc2)C[C@]2(C)[C@H]3C(=O)C=C4[C@@H]5C[C@@](C)(C(=O)O)CC[C@]5(C)CC[C@@]4(C)[C@]3(C)CC[C@@H]12`, the Activity in series [1] is given as 8.3%.
As for `COc1ccc(/C=C2\C[C@]3(C)[C@H]4C(=O)C=C5[C@@H]6C[C@@](C)(C(=O)O)CC[C@]6(C)CC[C@@]5(C)[C@]4(C)CC[C@H]3C(C)(C)C2=O)cc1`, the Activity in [1] is given as 11.5%.
As to `COc1ccc(/C=C2\C[C@]3(C)[C@H]4C(=O)C=C5[C@@H]6C[C@@](C)(C(=O)O)CC[C@]6(C)CC[C@@]5(C)[C@]4(C)CC[C@H]3C(C)(C)[C@H]2O)c(F)c1`, the Activity entry in series [4] is “Dde”; in series [3] it was 106.7%; in [7], “Dde”; in series [8] it was 8.3%; in series [9] it was 19.5%. In addition, the result in series [5], in series [6] and in series [10] was Active.
In the case of `CC1(C)[C@@H](O)/C(=C/c2cccc(F)c2)C[C@]2(C)[C@H]3C(=O)C=C4[C@@H]5C[C@@](C)(C(=O)O)CC[C@]5(C)CC[C@@]4(C)[C@]3(C)CC[C@@H]12`, in series [1], the Activity is recorded as 4.4%.
On the same count and under the same terms, the figure for `CC1(C)C(=O)/C(=C/c2ccc(Br)cc2)C[C@]2(C)[C@H]3C(=O)C=C4[C@@H]5C[C@@](C)(C(=O)O)CC[C@]5(C)CC[C@@]4(C)[C@]3(C)CC[C@@H]12` is 17.5%.
Take `COc1ccc(/C=C2\C[C@]3(C)[C@H]4C(=O)C=C5[C@@H]6C[C@@](C)(C(=O)O)CC[C@]6(C)CC[C@@]5(C)[C@]4(C)CC[C@H]3C(C)(C)C2=O)c(F)c1`: in [1], the Activity came out at 19.1%.
As to `CC1(C)[C@@H](O)/C(=C/c2ccncc2)C[C@]2(C)[C@H]3C(=O)C=C4[C@@H]5C[C@@](C)(C(=O)O)CC[C@]5(C)CC[C@@]4(C)[C@]3(C)CC[C@@H]12`, in series [1], the Activity amounted to 3.2%.
For `CC1(C)[C@@H](O)CC[C@]2(C)[C@H]3C(=O)C=C4[C@@H]5C[C@@](C)(C(=O)O)CC[C@]5(C)CC[C@@]4(C)[C@]3(C)CC[C@@H]12` [ENOXOLONE], the Activity amounted to 106.4% in series [3], 1% in series [8] and 17% in series [9].
As to `CC1(C)C(=O)/C(=C/c2cccc(F)c2)C[C@]2(C)[C@H]3C(=O)C=C4[C@@H]5C[C@@](C)(C(=O)O)CC[C@]5(C)CC[C@@]4(C)[C@]3(C)CC[C@@H]12`, the Activity in series [1] was found to be 6.5%.
Regarding `CCc1ccc(/C=C2\C[C@]3(C)[C@H]4C(=O)C=C5[C@@H]6C[C@@](C)(C(=O)O)CC[C@]6(C)CC[C@@]5(C)[C@]4(C)CC[C@H]3C(C)(C)[C@H]2O)cc1`, the Activity in series [3] amounted to 114.5%.
The same measure, in the same setting: the figure for `CC1(C)C(=O)/C(=C/c2ccc(Cl)cc2)C[C@]2(C)[C@H]3C(=O)C=C4[C@@H]5C[C@@](C)(C(=O)O)CC[C@]5(C)CC[C@@]4(C)[C@]3(C)CC[C@@H]12` is 113.9%; for `CCOc1cccc(/C=C2\C[C@]3(C)[C@H]4C(=O)C=C5[C@@H]6C[C@@](C)(C(=O)O)CC[C@]6(C)CC[C@@]5(C)[C@]4(C)CC[C@H]3C(C)(C)[C@H]2O)c1` it is 100.1%.
On to `CC1(C)C(=O)/C(=C/c2ccccc2)C[C@]2(C)[C@H]3C(=O)C=C4[C@@H]5C[C@@](C)(C(=O)O)CC[C@]5(C)CC[C@@]4(C)[C@]3(C)CC[C@@H]12`, for which, in [1], the Activity was 11.5%.
In the case of `COc1ccccc1/C=C1\C[C@]2(C)[C@H]3C(=O)C=C4[C@@H]5C[C@@](C)(C(=O)O)CC[C@]5(C)CC[C@@]4(C)[C@]3(C)CC[C@H]2C(C)(C)[C@H]1O`, the Activity in series [3] is 114.5%; in series [8], 6%.
Consider `COc1cc(Br)c(/C=C2\C[C@]3(C)[C@H]4C(=O)C=C5[C@@H]6C[C@@](C)(C(=O)O)CC[C@]6(C)CC[C@@]5(C)[C@]4(C)CC[C@H]3C(C)(C)[C@H]2O)cc1O`, for which the Activity in series [1] is reported as 10.3%.
Consider `COc1ccc(/C=C2\C[C@]3(C)[C@H]4C(=O)C=C5[C@@H]6C[C@@](C)(C(=O)O)CC[C@]6(C)CC[C@@]5(C)[C@]4(C)CC[C@H]3C(C)(C)[C@H]2O)cc1`, for which, in series [3], the Activity was 112.5%.
Turning to `Cc1ccc(/C=C2\C[C@]3(C)[C@H]4C(=O)C=C5[C@@H]6C[C@@](C)(C(=O)O)CC[C@]6(C)CC[C@@]5(C)[C@]4(C)CC[C@H]3C(C)(C)C2=O)cc1`, the Activity in series [1] amounted to 30.5%.
The same measure, in the same setting: the figure for `CC1(C)C(=O)/C(=C/c2cccc3ccccc23)C[C@]2(C)[C@H]3C(=O)C=C4[C@@H]5C[C@@](C)(C(=O)O)CC[C@]5(C)CC[C@@]4(C)[C@]3(C)CC[C@@H]12` is 11.5%; for `CSc1ccc(/C=C2\C[C@]3(C)[C@H]4C(=O)C=C5[C@@H]6C[C@@](C)(C(=O)O)CC[C@]6(C)CC[C@@]5(C)[C@]4(C)CC[C@H]3C(C)(C)C2=O)cc1` it is 8.4%; for `CCc1ccc(/C=C2\C[C@]3(C)[C@H]4C(=O)C=C5[C@@H]6C[C@@](C)(C(=O)O)CC[C@]6(C)CC[C@@]5(C)[C@]4(C)CC[C@H]3C(C)(C)C2=O)cc1` it is 28.8%.
Regarding `Cc1ccc(/C=C2\C[C@]3(C)[C@H]4C(=O)C=C5[C@@H]6C[C@@](C)(C(=O)O)CC[C@]6(C)CC[C@@]5(C)[C@]4(C)CC[C@H]3C(C)(C)[C@H]2O)s1`, the Activity in series [3] was 101.1%.
Same read-out and setting: the figure for `CC1(C)[C@@H](O)/C(=C/c2cccc3ccccc23)C[C@]2(C)[C@H]3C(=O)C=C4[C@@H]5C[C@@](C)(C(=O)O)CC[C@]5(C)CC[C@@]4(C)[C@]3(C)CC[C@@H]12` is 110.1%.
Turning to `COc1ccccc1/C=C1\C[C@]2(C)[C@H]3C(=O)C=C4[C@@H]5C[C@@](C)(C(=O)O)CC[C@]5(C)CC[C@@]4(C)[C@]3(C)CC[C@H]2C(C)(C)C1=O`, the Activity in series [1] worked out at 5.9%.
For the compound `CC1(C)[C@@H](O)/C(=C/c2ccccc2)C[C@]2(C)[C@H]3C(=O)C=C4[C@@H]5C[C@@](C)(C(=O)O)CC[C@]5(C)CC[C@@]4(C)[C@]3(C)CC[C@@H]12`, in series [1], the Activity is reported as 7.4%.
`O=C1O[C@H]([C@@H](O)CO)C(O)=C1O`: in [11], the outcome was Active.
In the case of `CSc1ccc(/C=C2\C[C@]3(C)[C@H]4C(=O)C=C5[C@@H]6C[C@@](C)(C(=O)O)CC[C@]6(C)CC[C@@]5(C)[C@]4(C)CC[C@H]3C(C)(C)[C@H]2O)cc1`, the Activity in [3] is listed as 109.5%; in series [9], 12%.
As for `COc1ccc(/C=C2\C[C@]3(C)[C@H]4C(=O)C=C5[C@@H]6C[C@@](C)(C(=O)O)CC[C@]6(C)CC[C@@]5(C)[C@]4(C)CC[C@H]3C(C)(C)C2=O)c(Br)c1O`, in series [1], the Activity amounted to 10%.
In the case of `Cc1ccc(/C=C2\C[C@]3(C)[C@H]4C(=O)C=C5[C@@H]6C[C@@](C)(C(=O)O)CC[C@]6(C)CC[C@@]5(C)[C@]4(C)CC[C@H]3C(C)(C)C2=O)s1`, in [1], the Activity was determined as 12.2%.
The same measure, in the same setting: the figure for `CCOc1cccc(/C=C2\C[C@]3(C)[C@H]4C(=O)C=C5[C@@H]6C[C@@](C)(C(=O)O)CC[C@]6(C)CC[C@@]5(C)[C@]4(C)CC[C@H]3C(C)(C)C2=O)c1` is 35.7%.
Consider `COc1cc(Br)c(/C=C2\C[C@]3(C)[C@H]4C(=O)C=C5[C@@H]6C[C@@](C)(C(=O)O)CC[C@]6(C)CC[C@@]5(C)[C@]4(C)CC[C@H]3C(C)(C)C2=O)cc1O`, for which the Activity in series [3] stood at 104.7%; in [8], 3%.
